Experimental data from patent US5948814A, “Genistein for the treatment of cystic fibrosis” (priority 1998, dated 1999).
Where “and” joins values, the source holds several entries; their conditions need not be identical. Identical values can stand only once. Entries after “also recorded” stand apart in the source; their conditions may differ.

Legend:
[1] = test system: cAMP levels or PKA activity; details: cited from earlier work
histidine kinase = details: cited from earlier work
CFTR = experiment: In vivo phosphorylation of CFTR (32P) versus I- efflux, NIH/3T3-CFTR cells; assay type: cell-based; details: 50 μM genistein; 0-10 μM forskolin; all phosphorylation levels
Method: I^- efflux: I^- efflux was measured as described previously [Reenstra et al., 1996]. Briefly, cells were incubated for 30 minutes with 37° C. I^- efflux buffer [(in mM) 141 NaCl, 4 KCl, 1 KH2 PO4, 0.9 MgCl2, 1.7 CaCl2. 10 N-2hydroxyethylpiperazine-N'-2-ethanesulfonic acid (HEPES), 25 glucose pH 7.4] containing 5 μCi/ml carrier-free ^125 I^- (sodium salt). Extracellular ^125 I^- was removed by washing four times with efflux buffer, and the rate of loss of intracellular ^125 I^- was determined by replacing the bathing solution with 37° C. efflux buffer every 60 seconds for 12 minutes. Time-dependent rates of ^125 I^- efflux are calculated from R=ln(^125 I^-t1 /^125 I^-t2)/(t1-t2), where ^125 I^-t is the intracellular ^125 I^- at time t and t1 and t2 are successive time points. Dose-response curves were obtained from peak rates of 125I^- efflux by nonlinear least squares fitting to R=[Ro +Rmx ·([fsk]/K1/2)]/[1+([fsk]/K1/2)], where Ro and Rmx are the rates of ^125 I efflux at zero and infinite concentration of forskolin (fsk), and K1/2 is the concentration of agonist that gives a half-maximal change.

ΔF508-CFTR [2] = target: T1, ΔF508-CFTR (Homo sapiens, UniProt P13569, DEL508-508); experiment: Other protein tyrosine kinase inhibitors, activation of ΔF508-CFTR; assay type: cell-based; design: expressed in transfected cells; host or cells: NIH/3T3 cells, stably transfected (NIH/3T3-ΔF508, gift of Dr. Richard Mulligan)
T1 sequence (P13569 with tags, fused parts or gaps DEL508-508): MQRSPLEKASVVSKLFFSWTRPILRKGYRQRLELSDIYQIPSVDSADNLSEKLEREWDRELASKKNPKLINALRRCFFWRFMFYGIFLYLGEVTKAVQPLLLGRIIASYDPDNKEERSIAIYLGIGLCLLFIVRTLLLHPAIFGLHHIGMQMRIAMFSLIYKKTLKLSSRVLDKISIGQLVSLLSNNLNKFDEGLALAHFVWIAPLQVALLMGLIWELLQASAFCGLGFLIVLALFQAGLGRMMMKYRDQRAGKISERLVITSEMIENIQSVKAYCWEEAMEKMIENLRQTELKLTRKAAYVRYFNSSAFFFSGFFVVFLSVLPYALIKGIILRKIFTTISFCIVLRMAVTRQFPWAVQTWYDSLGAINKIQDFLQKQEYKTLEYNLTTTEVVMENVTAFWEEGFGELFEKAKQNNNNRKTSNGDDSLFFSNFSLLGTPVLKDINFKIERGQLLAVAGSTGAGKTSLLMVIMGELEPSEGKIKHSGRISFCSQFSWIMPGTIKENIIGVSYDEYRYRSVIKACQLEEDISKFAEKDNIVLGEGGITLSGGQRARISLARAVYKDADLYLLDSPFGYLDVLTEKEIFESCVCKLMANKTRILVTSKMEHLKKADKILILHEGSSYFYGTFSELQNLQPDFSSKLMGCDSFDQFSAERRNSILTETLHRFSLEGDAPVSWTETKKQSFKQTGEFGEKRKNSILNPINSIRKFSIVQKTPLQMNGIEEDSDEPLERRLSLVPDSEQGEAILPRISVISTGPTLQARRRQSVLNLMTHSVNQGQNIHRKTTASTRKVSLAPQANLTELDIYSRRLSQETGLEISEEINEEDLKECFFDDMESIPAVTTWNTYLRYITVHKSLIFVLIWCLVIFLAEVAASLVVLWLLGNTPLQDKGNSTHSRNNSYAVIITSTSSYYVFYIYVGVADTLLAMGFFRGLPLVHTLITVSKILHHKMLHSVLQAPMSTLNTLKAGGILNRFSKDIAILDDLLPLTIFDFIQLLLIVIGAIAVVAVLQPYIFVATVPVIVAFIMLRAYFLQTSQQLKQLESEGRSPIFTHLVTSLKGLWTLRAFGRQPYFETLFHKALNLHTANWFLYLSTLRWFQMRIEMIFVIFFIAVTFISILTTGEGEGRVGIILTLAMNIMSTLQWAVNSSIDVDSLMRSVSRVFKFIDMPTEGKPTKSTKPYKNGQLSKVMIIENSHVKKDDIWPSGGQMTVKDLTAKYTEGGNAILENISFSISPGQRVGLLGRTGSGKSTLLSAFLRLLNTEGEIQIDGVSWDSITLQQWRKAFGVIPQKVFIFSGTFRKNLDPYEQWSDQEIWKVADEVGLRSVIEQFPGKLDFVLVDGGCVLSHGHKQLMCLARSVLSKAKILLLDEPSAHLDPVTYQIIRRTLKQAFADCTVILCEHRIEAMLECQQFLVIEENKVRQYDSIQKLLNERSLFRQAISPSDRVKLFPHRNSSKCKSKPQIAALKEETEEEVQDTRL

ΔF508-CFTR [3] = target: T1, ΔF508-CFTR; experiment: CFTR gating in excised inside-out patches, NIH/3T3-ΔF508 cells
Method: FIGS. 9A and B are recordings of the effects of genistein on CFTR gating in excised inside-out patches from NIH/3T3-CFTR or NIH/3T3-ΔF508 cells. CFTR channels were activated by 10 μM forskolin +20 nM calyculin A before excision into an inside-out configuration. Presence of calyculin A helps to slow channel dephosphorylation. (A): continuous 14.5 minute recording of a patch containing wt-CFTR. Expanded traces are 22 seconds in length. ATP (500 μM) with or without 20 μM genistein was present as indicated. (B): 2 traces of 44 seconds in length of an excised inside-out patch with CFTR-ΔF508.
(§1) Electrophysiology: CFTR channel currents were recorded at room temperature (~22° C.) with a patch-clamp amplifier (EPC-9, Heka Electronic), filtered at 100 Hz with a built-in three-pole Bessel filter, and stored on videotapes. Data were subsequently refiltered at 25 Hz with an eight-pole Bessel filter (Frequency Device, Havervill, Mass.) and captured onto a hard disk at a sampling rate of 50 Hz. […] Patch-clamp electrodes were made from Corning 7052 glass capillaries (Warner Instrument, Hammed, Conn.). The pipette resistance was usually 3-5 M.OMEGA., and the seal resistance was >20 G.OMEGA.. The pipette solution contained (in mM) 140 N-methyl-D-glucamine chloride (NMDG-C1), 2 MgCl2, 5Ca Cl2, and 10 HEPES (pH 7.4 with NMDG). The superfusion solution contained (in mM) 150 […], 2 MgCl2, 1 EGTA, 5 glucose, and 5 HEPES (pH 7.4 with NaOH). In excised inside-out patch experiments, the bath solution contained (in mM) 130 MNDG-Cl, 10 EGTA, 10 HEPES, 20 tetraethylammonium chloride, 8 Tris, and 2 MgCl2 (pH 7.4 with NMDG). Pipette potential was held at 50 mV relative to the bath. Downward deflections represent channel opening.
Channels were first activated in cell-attached patches with forskolin plus calyculin A, a membrane-permeant phosphatase inhibitor [Suganuma et al., 1991]. Patches were then excised into an inside-out configuration.

wt-CFTR = wt-CFTR (Homo sapiens, UniProt P13569)
wt-CFTR, sequence (P13569 whole entry): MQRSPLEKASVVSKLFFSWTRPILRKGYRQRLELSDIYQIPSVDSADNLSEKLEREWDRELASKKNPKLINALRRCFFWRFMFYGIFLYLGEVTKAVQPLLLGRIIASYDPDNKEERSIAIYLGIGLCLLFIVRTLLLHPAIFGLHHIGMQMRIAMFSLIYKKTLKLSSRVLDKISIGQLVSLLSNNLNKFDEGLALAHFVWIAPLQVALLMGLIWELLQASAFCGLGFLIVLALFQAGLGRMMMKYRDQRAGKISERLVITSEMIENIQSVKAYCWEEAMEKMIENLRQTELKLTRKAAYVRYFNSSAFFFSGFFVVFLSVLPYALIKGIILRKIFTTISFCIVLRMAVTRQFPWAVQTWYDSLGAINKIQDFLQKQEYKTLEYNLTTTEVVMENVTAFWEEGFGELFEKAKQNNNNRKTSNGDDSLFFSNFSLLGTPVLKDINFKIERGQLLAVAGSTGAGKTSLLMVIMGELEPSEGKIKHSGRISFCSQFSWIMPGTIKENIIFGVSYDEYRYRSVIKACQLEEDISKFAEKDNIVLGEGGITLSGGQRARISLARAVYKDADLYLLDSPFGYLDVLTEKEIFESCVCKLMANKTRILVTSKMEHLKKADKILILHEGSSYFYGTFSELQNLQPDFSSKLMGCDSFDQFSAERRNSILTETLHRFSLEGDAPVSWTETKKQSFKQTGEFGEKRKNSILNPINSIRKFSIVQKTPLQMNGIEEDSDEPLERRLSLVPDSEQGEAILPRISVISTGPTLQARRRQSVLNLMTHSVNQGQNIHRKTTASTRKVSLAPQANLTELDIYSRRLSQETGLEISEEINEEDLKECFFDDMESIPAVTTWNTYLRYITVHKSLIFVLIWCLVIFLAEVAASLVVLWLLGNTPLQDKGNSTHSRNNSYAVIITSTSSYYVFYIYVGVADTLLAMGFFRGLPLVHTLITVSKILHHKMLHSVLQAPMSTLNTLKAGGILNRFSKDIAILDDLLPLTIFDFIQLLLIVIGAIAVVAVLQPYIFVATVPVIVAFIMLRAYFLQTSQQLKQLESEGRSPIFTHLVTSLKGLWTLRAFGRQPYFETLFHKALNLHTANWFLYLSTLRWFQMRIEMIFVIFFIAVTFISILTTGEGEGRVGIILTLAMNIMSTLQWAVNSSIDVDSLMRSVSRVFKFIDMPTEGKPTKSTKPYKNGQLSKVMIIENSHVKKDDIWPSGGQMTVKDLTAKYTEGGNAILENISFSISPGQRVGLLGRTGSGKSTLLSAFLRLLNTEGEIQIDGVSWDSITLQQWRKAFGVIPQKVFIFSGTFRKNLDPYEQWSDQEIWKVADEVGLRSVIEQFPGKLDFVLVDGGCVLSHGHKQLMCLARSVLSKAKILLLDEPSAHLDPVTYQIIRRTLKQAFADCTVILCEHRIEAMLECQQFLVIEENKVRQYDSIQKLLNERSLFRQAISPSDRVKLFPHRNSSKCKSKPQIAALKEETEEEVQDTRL
Method: as §1

[4] = test system: acid secretion and osteopathic bone resorption; details: cited from earlier work
ΔF508-CFTR [5] = target: T1, ΔF508-CFTR; experiment: Patch clamp, cell-attached patches, macroscopic current, NIH/3T3-ΔF508 cells
Method: FIGS. 3A and B show recordings of the potentiation of wild-type (wt) and ΔF508-CFTR channel activity by genistein. Channels in cell-attached patches from NIH/3T3-CFTR (FIG. 3A) and NIH/3T3-ΔF508cells (FIG. 3B), were stimulated as indicated with 10 μM forskolin and 50μ genestein.
Cell culture: NIH/3T3-CFTR, NIH/3T3-ΔF508, and NIH/3T3 mock cells (generous gifts from Dr. Richard Mulligan of Children's Hospital and Medical Center, Harvard Medical School) were grown as described [Bradbury et al., 1992] at 37° C. and 5% CO2 in Dulbecco's modified Eagle's medium-H21 supplemented with 10% new-born calf serum, 4 mM glutamine, 25 mM glucose, 100 μg/ml penicillin, 100 μg/ml streptomycin, and 50 μg/ml gentamicin. Cells were maintained in T75 flasks, passaged at 90-95% confluency, and split one to four. For measurements of I^- efflux and in vivo phosphorylation, cells were seeded onto 35-mm dishes at […]. For patch-clamp experiments, cells were grown on coverglass chips in 35-mm culture dishes. Media were replaced 24 hours after plating and thereafter every 48 hours. In all cases, media were changed on the day before I^- efflux studies, NIH/3T3-ΔF508 cells were transferred to 27° C. three days before use, and 1 day prior to study, media were supplemented with 5 mM butyrate. For patch-clamp studies, where a constant level of functional ΔF508-CFTR was not essential, NIH/3T3-ΔF508 cells were cultured at 27° C. for 2-6 days before use. Calu-3 cells were grown and maintained as described by Hunter [1995].
as §1, with “In excised inside-out patch experiments, the bath solution contained (in mM) 130 MNDG-Cl, 10 EGTA, 10 HEPES, 20 tetraethylammonium chloride, 8 Tris, and 2 MgCl2 (pH 7.4 with NMDG). Pipette potential was held at 50 mV relative to the bath. Downward deflections represent channel opening.” left out
Statistics: Mean currents and variance were estimated with Igor (Wavemetrics, Lake Oswego, Oreg.). […] Po was calculated from patches containing a single channel by dividing the open channel current amplitude with the mean-current amplitude. […] Calculated values are presented as means±SE. […]

O=c1c(-c2ccc(O)cc2)coc2cc(O)cc(O)c12 [Genistein, 4',5,7-trihydroxyisoflavone]
effect on cAMP levels or PKA activity [1]: does not increase cAMP levels or PKA activity; also recorded: does not alter cellular cAMP levels or PKA activity | inhibition of histidine kinase (histidine kinase): inhibits | channel activity at given CFTR phosphorylation level (CFTR): channel activity was greater in the presence of genistein | ΔF508-CFTR stimulation activity among protein tyrosine kinase inhibitors (ΔF508-CFTR [2]): is the only protein tyrosine kinase inhibitor that has such an effect | channel open time (ΔF508-CFTR [3]; ATP with genistein, stated for both wt- and ΔF508-CFTR): 2,033±173 milliseconds | increase of ATP-dependent channel current by genistein (ΔF508-CFTR [3]; genistein, n=7): 2.3±0.5 fold | magnitude of potentiation by genistein after patch cramming (wt-CFTR; patch crammed into a different NIH/3T3-CFTR cell): similar | increase of mean current by genistein (wt-CFTR; wt-CFTR crammed into NIH/3T3-ΔF508 cell, 10 μM forskolin, 50 μM genistein, n=3): 3.2±0.3 fold | inhibition of acid secretion and osteopathic bone resorption [4]: effectively inhibits acid secretion and osteopathic bone resorption | patches showing channel activity (ΔF508-CFTR [5]; 10 μM forskolin plus 50 μM genistein, cells grown at 37° C.): Approximately 10% | average increase in mean-current amplitude by genistein (ΔF508-CFTR [5]; 50 μM genistein on 10 μM forskolin, cells cultured at 27° C., 23 patches, 50 µM): 18.6±2.2 fold and 19 fold | patches responding (ΔF508-CFTR [5]; forskolin plus genistein, cells grown at 27° C., 44 of 82): 54%
